Measured values as given in article PMC9090415, “Discovery of small molecule inhibitors of Plasmodium falciparum apicoplast DNA polymerase” (Journal of Enzyme Inhibition and Medicinal Chemistry, 2022).

Target: P. falciparum apicoplast DNA polymerase (Pf-apPOL) (Plasmodium falciparum, UniProt Q8ILY1)
Assay: Fluorescence-based high-throughput DNA polymerase assay (molecular beacon), primary screen and dose-response;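 on % inhibition ApPOL 90': test concentration in µM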;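 on % inhibition apPOL 180': test concentration in µM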
Type: biochemical
Conditions: for DNA Pol: unit not given, 90 min, 10 µM
Outline: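 Single-point screening used 10 µM compound with 20 nM polymerase, 20 nM hairpin substrate and 6 µM dNTPs for 90 min at 25 °C. Confirmatory titrations (2.5–80 µM) followed fluorescence at three times, and IC50 was derived from a fit including a cooperativity term n.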

[1] = DRC-2, 40', concentration 20 (unit not given)
[2] = DRC-2, 90', concentration 20 (unit not given)
[3] = DRC-2, 180', concentration 20 (unit not given)

Sequence of P. falciparum apicoplast DNA polymerase (Pf-apPOL) (Q8ILY1 entry or part of it): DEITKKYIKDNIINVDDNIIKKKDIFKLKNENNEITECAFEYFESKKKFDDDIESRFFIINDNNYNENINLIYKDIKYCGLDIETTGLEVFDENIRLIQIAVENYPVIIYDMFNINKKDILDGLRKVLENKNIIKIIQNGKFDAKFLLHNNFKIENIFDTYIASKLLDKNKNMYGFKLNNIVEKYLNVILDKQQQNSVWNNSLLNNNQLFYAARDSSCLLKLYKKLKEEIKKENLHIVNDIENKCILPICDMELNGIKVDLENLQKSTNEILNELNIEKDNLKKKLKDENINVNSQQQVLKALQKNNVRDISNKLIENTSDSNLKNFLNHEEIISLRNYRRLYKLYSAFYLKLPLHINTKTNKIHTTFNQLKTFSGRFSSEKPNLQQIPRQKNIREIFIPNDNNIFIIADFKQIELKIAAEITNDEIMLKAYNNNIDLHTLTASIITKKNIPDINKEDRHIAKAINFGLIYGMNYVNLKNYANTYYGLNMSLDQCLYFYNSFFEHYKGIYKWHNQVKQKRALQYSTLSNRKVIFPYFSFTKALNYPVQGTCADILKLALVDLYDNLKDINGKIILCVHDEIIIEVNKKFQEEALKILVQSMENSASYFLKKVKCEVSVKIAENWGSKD

Cc1cc(C)c2c(O)nc(SCC(=O)c3ccc(O)c(O)c3)nc2n1 [Molecule 88, Cc1cc(C)c2c(n1)nc(nc2O)SCC(=O)c1ccc(c(c1)O)O]
% inhibition Apo pol 10' (DRC-1, concentration 2.5): 66.1048%
% inhibition Apo pol 10' (DRC-1, concentration 5): 84.19%
% inhibition Apo pol 10' (DRC-1, concentration 10): 90.4679%
% inhibition Apo pol 10' (DRC-1, concentration 20): 96.9488%
% inhibition Apo pol 10' (DRC-1, concentration 40): 98.8856%
% inhibition Apo pol 10' (DRC-1, concentration 80): 98.1462%
% inhibition Apol 90' (DRC-1, 90', concentration 2.5): 42.8406%
% inhibition Apol 90' (DRC-1, 90', concentration 5): 64.0677%
% inhibition Apol 90' (DRC-1, 90', concentration 10): 76.3822%
% inhibition Apol 90' (DRC-1, 90', concentration 20): 90.5503%
% inhibition Apol 90' (DRC-1, 90', concentration 40): 93.4235%
% inhibition Apol 90' (DRC-1, 90', concentration 80): 90.6466%
% inhibition apPOL 180' (DRC-1, 180', concentration 2.5): 28.0012%
% inhibition apPOL 180' (DRC-1, 180', concentration 5): 48.1017%
% inhibition apPOL 180' (DRC-1, 180', concentration 10): 62.9235%
% inhibition apPOL 180' (DRC-1, 180', concentration 20): 84.8942%
% inhibition apPOL 180' (DRC-1, 180', concentration 40): 86.2556%
% inhibition apPOL 180' (DRC-1, 180', concentration 80): 82.2791%
% inhibition Apol 40' (DRC-2, 40', concentration 10 (unit not given)): 63%
% inhibition Apol 40' [1]: 71%
% inhibition Apol 40' (DRC-2, 40', concentration 80 (unit not given)): 54%
% inhibition ApPOL 90' (DRC-2, 90', concentration 10 (unit not given)): 63%
% inhibition ApPOL 90' [2]: 71%
% inhibition ApPOL 90' (DRC-2, 90', concentration 40 (unit not given)): 71%
% inhibition apPOL 180' (DRC-2, 180', concentration 10 (unit not given)): 54%
% inhibition apPOL 180' [3]: 63%
% inhibition apPOL 180' (DRC-2, 180', concentration 40 (unit not given)): 63%
% inhibition Apo pol 5' (DRC-2, 5', concentration 2.5): 35%
% inhibition Apo pol 5' (DRC-2, 5', concentration 5): 43%
% inhibition Apo pol 5' (DRC-2, 5', concentration 10): 50%
% inhibition Apo pol 5' (DRC-2, 5', concentration 20): 55%
% inhibition Apo pol 5' (DRC-2, 5', concentration 40): 58%
% inhibition Apo pol 5' (DRC-2, 5', concentration 80): 31%
% inhibition Apol 40' (DRC-2, 40', concentration 2.5): 32%
% inhibition Apol 40' (DRC-2, 40', concentration 5): 45%
% inhibition Apol 40' (DRC-2, 40', concentration 10): 63%
% inhibition Apol 40' (DRC-2, 40', concentration 20): 71%
% inhibition Apol 40' (DRC-2, 40', concentration 40): 72%
% inhibition Apol 40' (DRC-2, 40', concentration 80): 54%
% inhibition ApPOL 90' (DRC-2, 90', concentration 2.5): 28%
% inhibition ApPOL 90' (DRC-2, 90', concentration 5): 42%
% inhibition ApPOL 90' (DRC-2, 90', concentration 10): 63%
% inhibition ApPOL 90' (DRC-2, 90', concentration 20): 71%
% inhibition ApPOL 90' (DRC-2, 90', concentration 40): 71%
% inhibition ApPOL 90' (DRC-2, 90', concentration 80): 56%
% inhibition apPOL 180' (DRC-2, 180', concentration 2.5): 18%
% inhibition apPOL 180' (DRC-2, 180', concentration 5): 27%
% inhibition apPOL 180' (DRC-2, 180', concentration 10): 54%
% inhibition apPOL 180' (DRC-2, 180', concentration 20): 63%
% inhibition apPOL 180' (DRC-2, 180', concentration 40): 63%
% inhibition apPOL 180' (DRC-2, 180', concentration 80): 53%
DNA Pol (primary screen value of the 186 hits): 85
DNA Pol (primary screen value, head "DNA Pol"): 85

CCCCc1ccc(NC(=O)CSc2nc(C3CCCCC3)c(C#N)c(=O)[nH]2)c(C)c1 [Molecule 8, CCCCc1ccc(c(c1)C)NC(=O)CSc1nc(C2CCCCC2)c(c(=O)[nH]1)C#N]
DNA Pol ('DNA Pol' of the 186 hits list (primary screen result)): 95
% inhibition Apo pol 10' (DRC-1, concentration 2.5): -1.955%
% inhibition Apo pol 10' (DRC-1, concentration 5): 13.3371%
% inhibition Apo pol 10' (DRC-1, concentration 10): 62.6303%
% inhibition Apo pol 10' (DRC-1, concentration 20): 77.3201%
% inhibition Apo pol 10' (DRC-1, concentration 40): 94.4176%
% inhibition Apo pol 10' (DRC-1, concentration 80): 94.8178%
% inhibition Apol 90' (DRC-1, 90', concentration 2.5): 1.126%
% inhibition Apol 90' (DRC-1, 90', concentration 5): 14.1038%
% inhibition Apol 90' (DRC-1, 90', concentration 10): 58.4598%
% inhibition Apol 90' (DRC-1, 90', concentration 20): 77.2827%
% inhibition Apol 90' (DRC-1, 90', concentration 40): 94.9708%
% inhibition Apol 90' (DRC-1, 90', concentration 80): 95.9505%
% inhibition apPOL 180' (DRC-1, 180', concentration 2.5): 1.158%
% inhibition apPOL 180' (DRC-1, 180', concentration 5): 7.482%
% inhibition apPOL 180' (DRC-1, 180', concentration 10): 46.1044%
% inhibition apPOL 180' (DRC-1, 180', concentration 20): 69.2922%
% inhibition apPOL 180' (DRC-1, 180', concentration 40): 95.0497%
% inhibition apPOL 180' (DRC-1, 180', concentration 80): 96.1544%
% inhibition Apo pol 5' (DRC-2, 5', concentration 20 (unit not given)): 40%
% inhibition Apol 40' [1]: 48%
% inhibition ApPOL 90' [2]: 48%
% inhibition apPOL 180' [3]: 40%
% inhibition Apo pol 5' (DRC-2, 5', concentration 2.5): -2.67%
% inhibition Apo pol 5' (DRC-2, 5', concentration 5): 2.83%
% inhibition Apo pol 5' (DRC-2, 5', concentration 10): 12%
% inhibition Apo pol 5' (DRC-2, 5', concentration 20): 40%
% inhibition Apo pol 5' (DRC-2, 5', concentration 40): 61%
% inhibition Apo pol 5' (DRC-2, 5', concentration 80): 65%
% inhibition Apol 40' (DRC-2, 40', concentration 2.5): 1.81%
% inhibition Apol 40' (DRC-2, 40', concentration 5): 5%
% inhibition Apol 40' (DRC-2, 40', concentration 10): 16%
% inhibition Apol 40' (DRC-2, 40', concentration 20): 48%
% inhibition Apol 40' (DRC-2, 40', concentration 40): 72%
% inhibition Apol 40' (DRC-2, 40', concentration 80): 79%
% inhibition ApPOL 90' (DRC-2, 90', concentration 2.5): 1.18%
% inhibition ApPOL 90' (DRC-2, 90', concentration 5): 4%
% inhibition ApPOL 90' (DRC-2, 90', concentration 10): 15%
% inhibition ApPOL 90' (DRC-2, 90', concentration 20): 48%
% inhibition ApPOL 90' (DRC-2, 90', concentration 40): 73%
% inhibition ApPOL 90' (DRC-2, 90', concentration 80): 83%
% inhibition apPOL 180' (DRC-2, 180', concentration 2.5): -0.672%
% inhibition apPOL 180' (DRC-2, 180', concentration 5): -0.274%
% inhibition apPOL 180' (DRC-2, 180', concentration 10): 9%
% inhibition apPOL 180' (DRC-2, 180', concentration 20): 40%
% inhibition apPOL 180' (DRC-2, 180', concentration 40): 71%
% inhibition apPOL 180' (DRC-2, 180', concentration 80): 86%
DNA Pol (primary screen value of the library well): 95
